Results on four compounds are retold here after patent US10980787B2, “Drug for treating or preventing disorder caused by TGF-B signals, and application thereof” (THE DOSHISHA, priority 2015, dated 2021).

The test system of data set [1] is immobilized human corneal endothelial cells (iFECD). In words: Mitochondrial membrane potential, JC-1 stain, confocal microscope. As to conditions: CCCP 50 μmol/L, 9 hours, uncoupling agent. Type of data set: cell-based. The procedure: (§1) The medium was removed from a culture dish in which immobilized human corneal endothelial cells were being cultured, and the cells were supplemented with 1×PBS (−) that was preheated to 37° C., and were washed. This was repeated twice. The cells were supplemented again with 1×PBS (−) and incubated for 5 minutes at 37° C. (5% CO2). After removing the PBS (−), the cells were supplemented with 0.05% Trypsin-EDTA (Nacalai Tesque, 35554-64) and incubated for 5 minutes at 37° C. (5% CO2). The cells were then suspended in a medium, and collected by centrifugation at 1500 rpm for 3 minutes. DMEM (Nacalai Tesque, 08456-94)+10% FBS (Biowest, S1820-500)+1% P/S (Nacalai Tesque, 26252-94) was used as the medium.
Immobilized human corneal endothelial cells (lot: iFECD3-5) were seeded on a 48-well plate at a ratio of 4×10^4 cells per well and cultured for 48 hours at 37° C. (5% CO2). DMEM+10% FBS+1% P/S was used as the medium.
After 48 hours, the medium was removed. Each inhibitor was added to culture the cells for 24 hours (pretreatment). DMSO (Dimethyl Sulfoxide Sterile-filtered) (Nacalai Tesque, 13408-64) was added to the control group and the TGF-β2 group. The CCCP group was supplemented with CCCP (abcam, ab141229), so that the final concentration was 50 μmol/L, and cultured for 9 hours. […]
Mitochondrial membrane potential was analyzed by the following procedure with a JC-1 stain. […]

The test system is the same in data set [2]. Kind of data set: Mitochondrial membrane potential decreased cells, JC-1 flow cytometry. Type of data set: cell-based. To be noted: TGF-β2 10 ng/ml 30 hours, SB203580 10 μM, PH-797804 1 μM, VX-702 3 μM, compared to the TGF-β2 group or SB431542 10 μM group. The procedure:
as §1, with “C. (5% C02). After removing” for “C. (5% CO2). After removing”
(§2) Immobilized human corneal endothelial cells (lot: iFECD3-5) were seeded on a 12-well plate at a ratio of 8×10^4 cells per well and cultured for 48 hours at 37° C. (5% CO2). DMEM+10% FBS+1% P/S was used as the medium.
After 48 hours, the medium was removed. Each inhibitor was added to culture the cells for 24 hours (pretreatment). DMSO (Dimethyl Sulfoxide Sterile-filtered) (Nacalai Tesque, 13408-64) was added to the control group and the TGF-β2 group. DMEM+2% FBS+1% P/S was used as the medium. […]
The samples prepared above were analyzed using BD Accuri C6 Flow Cytometer (BD).

Data set [3] relates to Human corneal endothelial cells. Kind of data set: Cryopreservation of corneal endothelial cells, trypan blue dye exclusion test. Type of data set: cell-based. As to conditions: SB203580 10 μM in KM BANKER, 3 days at −80° C. On the procedure:
Human corneal endothelial cells cultured in an MSC-CM (MSC cultured medium) were used in the test. The medium was removed from a culture dish in which human corneal endothelial cells were being cultured, and the cells were supplemented with PBS (−) that was preheated to 37° C., and were washed. This was repeated twice. After removing the PBS (−), the cells were supplemented with TrypLE Select (×10) (GIBCO, A12177-01) and incubated for 10 minutes at 37° C. (5% CO2). SB203580 was added to KM BANKER, so that the final concentration was 10 μM. The control group was cryopreserved by supplementing a reagent solvent, dimethyl sulfoxide (DMSO) (Dimethyl Sulfoxide Sterile-filtered; Nacalai Tesque, 13408-64). After 3 days of storage at −80° C., the tube was thawed by being immersed in a 37° C. water bath. After thawing, the sample was washed in a medium. Live and dead cell counts were measured by trypan blue dye exclusion test.

Data set [4] shares this test system. Kind of data set: Cell count 24 hours after thawing cryopreserved cells, CellTiter-Glo. Type of data set: cell-based. To be noted: SB203580 10 μM, 24 hours after seeding thawed cells. The procedure:
After thawing the cryopreserved cells by adding only DMSO, 10000 cells were seeded in a 96-well plate that was coated with laminin E8. SB203580 (Cayman, catalog number: 13067) was added so that the final concentration was 10 μM upon seeding. DMSO was added to the group to which SB203580 was not added. After 24 hours from seeding, CellTiter-Glo Luminescent Cell Viability Assay (Promega catalog number: G7570) was performed to measure luminescence.

The conditions of data set [5]: cited from earlier work.
The test system of data set [6] is immobilized human corneal endothelial cells (iFECD). In words: Cell damage by TGF-β2 stimulation, phase differential microscope. As to conditions: 24 h pretreatment, TGF-β2 10 ng/ml 27 hours, SB203580 10 μM, PH-797804 1 μM, VX-702 3 μM, SB431542 10 μM. Type of data set: cell-based. On the procedure:
as §1, with “P/S (penicillin-streptomycin mixture)” for “P/S”
as §2
After 48 hours, the medium was removed. Each inhibitor was added to culture the cells for 24 hours. DMSO (Dimethyl Sulfoxide Sterile-filtered) (Nacalai Tesque, 13408-64) was added to the control group and the TGF-52 group. DMEM+2% FBS+1% P/S was used as the medium.
After 24 hours, the medium was removed. A medium containing 10 ng/ml of Recombinant Human TGF-β2 (R&D systems, RND302-B2-002) and each inhibitor was added to culture the cells for 27 hours. […]

Another data set deals with smad2 and smad3. Kind of data set: Western blot of phospho-smad2 and smad3 after TGF-β2 stimulation. Type of data set: cell-based, human. As to conditions: iFECD, TGF-β2 10 ng/ml 24 hours; SB431542 10 μM, SB203580 10 μM, PH-797804 1 μM, VX-702 3 μM. An excerpt:
The same procedure as Example 4 was used. However, rabbit anti-Phospho-Smad2 antibody: 1000-fold dilution, rabbit anti-Phospho-Smad3 antibody: 1000-fold dilution, and mouse anti-GAPDH antibody: 3000-fold dilution were used as the primary antibodies.

With `N#CC(C#N)=NNc1cccc(Cl)c1` [CCCP], the “mitochondrial membrane potential (JC-1 red fluorescence)” value in data set [1] is given as “not observed”.

With `CNC(=O)c1ccc(C)c(-n2c(C)cc(OCc3ccc(F)cc3F)c(Br)c2=O)c1` [PH-797804, 3-[3-bromo-4-[(2,4-difluorophenyl)methoxy]-6-methyl-2-oxopyridin-1-yl]-N,4-dimethylbenzamide], the “percentage of mitochondrial membrane potential decreased cells” value in data set [2] is “comparable to or lower than the SB431542 added group”.

Take `C[S+]([O-])c1ccc(-c2nc(-c3ccncc3)c(-c3ccc(F)cc3)[nH]2)cc1` (stereo not drawn) [SB203580, 4-(4-fluorophenyl)-2-(4-methylsulfinylphenyl)-5-(4-pyridyl)-1H-imidazole]: in data set [2], the “percentage of mitochondrial membrane potential decreased cells” value is “comparable to or lower than the SB431542 added group”. Moreover, the “cell viability immediately after thawing compared to DMSO” value in data set [3] is given as “slightly higher”. Moreover, the “cell count compared to the DMSO-added group” value in data set [4] is listed as “about 1.3 fold”. For the same compound, the solubility into methanol entry in data set [5] (methanol) is “soluble”. In addition, the solubility into water entry in data set [5] (water) was “difficult to dissolve”.

As to `NC(=O)c1ccc(-c2nc(-c3ccc4c(c3)OCO4)c(-c3ccccn3)[nH]2)cc1` [SB431542], the “damage to corneal endothelial cells due to TGF-β2 stimulation” value in data set [6] is on record as “suppressed”. Besides, in the data set with smad2 and smad3, the “smad2 and smad3 (downstream of TGF-β signaling pathway) in western blot” value is reported as “not found”.
